Measurements taken from ChEMBL document CHEMBL6120974, “Hydrazide-Based Class I Selective HDAC Inhibitors Completely Reverse Chemoresistance Synergistically in Platinum-Resistant Solid Cancer Cells” (J Med Chem, 2024).
pIC50: −log10 of the molar value. Calls of active or inactive are those of the source. The calls are words filed in the database; no cut-off is given here.

Key:
[1] = molecular target: T1, Protein deacetylase HDAC6 (Homo sapiens, UniProt Q9UBN7); test: Inhibition of N-terminal GST-tagged full length recombinant human HDAC6 (1 to 1215 end residues) expressed in sf9 cells using ZMAL (Z-Lys(Ac)-AMC as fluorogenic substrate preincubated with compound for 60 mins followed by substrate addition and measured after 90 mins by fluorescence based microplate reader analysis
T1 sequence (Q9UBN7 whole entry): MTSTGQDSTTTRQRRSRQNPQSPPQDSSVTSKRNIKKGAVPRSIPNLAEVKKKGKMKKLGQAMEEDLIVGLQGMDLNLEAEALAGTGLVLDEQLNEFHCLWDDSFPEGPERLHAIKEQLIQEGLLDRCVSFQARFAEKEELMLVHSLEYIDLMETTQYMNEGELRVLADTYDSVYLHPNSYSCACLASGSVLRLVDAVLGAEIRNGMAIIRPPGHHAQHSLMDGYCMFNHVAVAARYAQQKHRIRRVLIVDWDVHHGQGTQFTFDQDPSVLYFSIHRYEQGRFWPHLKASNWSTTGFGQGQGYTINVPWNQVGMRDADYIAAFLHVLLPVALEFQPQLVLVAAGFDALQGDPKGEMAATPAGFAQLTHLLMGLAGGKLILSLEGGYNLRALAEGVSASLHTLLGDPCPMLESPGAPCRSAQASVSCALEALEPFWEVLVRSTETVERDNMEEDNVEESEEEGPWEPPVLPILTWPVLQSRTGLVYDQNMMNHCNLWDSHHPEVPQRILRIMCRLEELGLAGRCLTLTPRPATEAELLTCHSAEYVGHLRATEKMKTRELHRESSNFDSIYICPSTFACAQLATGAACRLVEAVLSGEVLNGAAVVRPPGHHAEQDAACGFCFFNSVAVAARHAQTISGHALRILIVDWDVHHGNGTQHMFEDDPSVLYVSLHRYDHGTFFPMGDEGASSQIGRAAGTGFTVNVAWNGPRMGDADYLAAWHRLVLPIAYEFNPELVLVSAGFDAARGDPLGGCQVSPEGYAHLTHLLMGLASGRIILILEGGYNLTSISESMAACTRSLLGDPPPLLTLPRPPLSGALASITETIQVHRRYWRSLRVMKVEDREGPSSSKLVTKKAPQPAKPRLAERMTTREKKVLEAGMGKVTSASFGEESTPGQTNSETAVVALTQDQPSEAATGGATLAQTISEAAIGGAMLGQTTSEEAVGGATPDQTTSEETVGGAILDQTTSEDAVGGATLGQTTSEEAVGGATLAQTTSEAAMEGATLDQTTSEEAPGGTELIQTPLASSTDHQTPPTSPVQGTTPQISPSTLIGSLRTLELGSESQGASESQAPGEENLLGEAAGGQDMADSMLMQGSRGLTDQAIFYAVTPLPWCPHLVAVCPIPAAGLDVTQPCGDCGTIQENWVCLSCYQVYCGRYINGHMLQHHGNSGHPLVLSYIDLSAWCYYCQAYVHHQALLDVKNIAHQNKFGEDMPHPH

Histone deacetylase 4 = Histone deacetylase 4 (Homo sapiens, UniProt P56524); test: Inhibition of recombinant HDAC4 (unknown origin) using Bos-Lys(TFA)-AMC as substrate preincubated with compound for 5 mins and measured after 90 mins by NOVOstar microplate reader analysis
Sequence of Histone deacetylase 4 (P56524 whole entry): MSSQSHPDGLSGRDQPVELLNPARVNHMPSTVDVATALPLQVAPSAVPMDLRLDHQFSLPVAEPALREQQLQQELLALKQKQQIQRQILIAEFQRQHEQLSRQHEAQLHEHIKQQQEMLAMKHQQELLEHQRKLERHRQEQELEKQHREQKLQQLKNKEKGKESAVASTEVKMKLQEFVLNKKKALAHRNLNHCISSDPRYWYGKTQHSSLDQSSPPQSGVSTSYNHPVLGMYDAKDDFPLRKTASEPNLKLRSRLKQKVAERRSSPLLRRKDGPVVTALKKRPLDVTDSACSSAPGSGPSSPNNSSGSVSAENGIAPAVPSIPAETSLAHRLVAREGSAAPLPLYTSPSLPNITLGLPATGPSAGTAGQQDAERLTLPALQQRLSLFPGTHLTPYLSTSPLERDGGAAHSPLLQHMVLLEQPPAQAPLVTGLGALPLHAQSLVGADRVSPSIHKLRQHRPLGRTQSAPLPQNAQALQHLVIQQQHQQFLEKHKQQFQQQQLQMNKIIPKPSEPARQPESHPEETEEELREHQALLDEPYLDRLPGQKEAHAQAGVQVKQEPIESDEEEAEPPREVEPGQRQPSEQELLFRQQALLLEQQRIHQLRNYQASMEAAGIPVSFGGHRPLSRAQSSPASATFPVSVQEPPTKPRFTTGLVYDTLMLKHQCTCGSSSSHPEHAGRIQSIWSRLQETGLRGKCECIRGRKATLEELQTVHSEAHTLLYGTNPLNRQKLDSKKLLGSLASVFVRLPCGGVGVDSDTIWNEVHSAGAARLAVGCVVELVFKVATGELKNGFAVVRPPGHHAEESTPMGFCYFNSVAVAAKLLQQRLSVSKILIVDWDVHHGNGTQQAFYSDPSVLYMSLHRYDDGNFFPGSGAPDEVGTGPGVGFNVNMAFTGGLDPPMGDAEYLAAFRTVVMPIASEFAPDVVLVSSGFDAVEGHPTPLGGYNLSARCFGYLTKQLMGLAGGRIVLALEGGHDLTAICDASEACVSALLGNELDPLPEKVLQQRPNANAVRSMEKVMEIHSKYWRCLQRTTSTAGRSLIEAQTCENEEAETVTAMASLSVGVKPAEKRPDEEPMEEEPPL

A2780 [2] = test: Induction of apoptosis in human A2780 cells assessed as increase in apoptotic nuclei at sub-G1 phase at 2 uM in presence of cisplatin at 16 uM preincubated with compound for 48 hrs prior to addition of cisplatin and measured after 24 hrs by flow cytometric analysis; assay type: functional, cell-based; settings: time 72.0 hrs
A2780 [3] = test: Induction of DNA damage in human A2780 cells assessed as increase in gammaH2AX formation at 0.75 uM in presence of cisplatin at 3.5 uM pretreated with compound for 48 hrs prior to addition of cisplatin and measured after 24 hrs by Hoechst 33342 staining based Immunofluorescence analysis; assay type: functional, cell-based; settings: time 72.0 hrs
Cal27CisR [4] = test: Induction of apoptosis in cisplatin resistant human Cal27CisR cells assessed as increase in Bcl-2 protein level at 0.316 uM incubated for 48 hrs by Immunoblotting analysis; assay type: functional, cell-based
CAL-27 [5] = test: Induction of apoptosis in human CAL-27 cells assessed as increase in Bcl-2 protein level at 0.316 uM in presence of cisplatin at 3 uM preincubated with compound for 48 hrs prior to addition of cisplatin and measured after 24 hrs by Immunoblotting analysis; assay type: functional, cell-based
A2780 [6] = test: Induction of apoptosis in human A2780 cells assessed as decrease in Bcl-2 protein level at 0.75 uM incubated for 48 hrs by Immunoblotting analysis; assay type: functional, cell-based
A2780 [7] = test: Induction of apoptosis in human A2780 cells assessed as decrease in Bcl-2 protein level at 0.75 uM in presence of cisplatin at 3.5 uM preincubated with compound for 48 hrs prior to addition of cisplatin and measured after 24 hrs by Immunoblotting analysis; assay type: functional, cell-based; settings: time 72.0 hrs
A2780 [8] = test: Induction of cell cycle arrest in human A2780 cells assessed as increase in p21 expression at 0.75 uM incubated for 48 hrs by Western blotting analysis; assay type: functional, cell-based
A2780cisR [9] = test: Induction of cell cycle arrest in cisplatin resistant human A2780 cells assessed as increase in p21 expression at 2 uM incubated for 48 hrs by Western blotting analysis; assay type: functional, cell-based
CAL-27 [10] = test: Downregulation of survivin expression in human CAL-27 cells at 0.316 uM incubated for 48 hrs by Immunoblotting analysis; assay type: functional, cell-based
Cal27CisR [11] = test: Downregulation of survivin expression in cisplatin resistant human Cal27CisR cells at 0.316 uM incubated for 48 hrs by Immunoblotting analysis; assay type: functional, cell-based
A2780 [12] = test: Downregulation of survivin expression in human A2780 cells at 0.75 uM in presence of cisplatin at 3.5 uM preincubated with compound for 48 hrs prior to addition of cisplatin and measured after 24 hrs by Immunoblotting analysis; assay type: functional, cell-based; settings: time 72.0 hrs
Cal27CisR [13] = test: Downregulation of BAX expression in cisplatin resistant human Cal27CisR cells at 0.316 uM incubated for 48 hrs by Immunoblotting analysis; assay type: functional, cell-based
A2780cisR [14] = test: Downregulation of BAX expression in cisplatin resistant human A2780 cisR cells at 2 uM incubated for 48 hrs by Immunoblotting analysis; assay type: functional, cell-based
CAL-27 [15] = test: Induction of apoptosis in human CAL-27 cells assessed as increase in BIM expression at 0.316 uM incubated for 48 hrs by Immunoblotting analysis; assay type: functional, cell-based
A2780 [16] = test: Induction of apoptosis in human A2780 cells assessed as increase in BIM expression at 0.75 uM incubated for 48 hrs by Immunoblotting analysis; assay type: functional, cell-based
A2780 [17] = test: Induction of apoptosis in human A2780 cells assessed as increase in BIM expression at 0.75 uM in presence of cisplatin at 3.5 uM preincubated with compound for 48 hrs prior to addition of cisplatin and measured after 24 hrs by Immunoblotting analysis; assay type: functional, cell-based; settings: time 72.0 hrs
cells = settings: Homo sapiens, CAL-27
Description: Inhibition of class I/6 HDAC (unknown origin) in human CAL-27 cells using Boc-Lys(epsilon-Ac)-AMC as substrate preincubated with compound for 18 hrs followed by substrate addition and measured after 3 hrs by NOVOstar microplate reader analysis

A2780cisR [18] = test: cells; settings: Homo sapiens, 72 h
CAL-27 [19] = test: cells; settings: Homo sapiens, CAL-27, 72 h
Description: Cytotoxicity against human CAL-27 cells assessed as reduction in cell viability incubated for 72 hrs by MTT assay

MV4-11 = test: cells; settings: Homo sapiens, MV4-11, 72 h
Description: Cytotoxicity against human MV4-11 cells harboring wild type p53 assessed as cell viability incubated for 72 hrs by MTT assay

SMILES	pIC50 [1]	pIC50 (Histone deacetylase 4)	Activity (A2780 [2])	Activity (A2780 [3])	Activity (Cal27CisR [4])	Activity (CAL-27 [5])	Activity (A2780 [6])	Activity (A2780 [7])	Activity (A2780 [8])	Activity (A2780cisR [9])	Activity (CAL-27 [10])	Activity (Cal27CisR [11])	Activity (A2780 [12])	Activity (Cal27CisR [13])	Activity (A2780cisR [14])	Activity (CAL-27 [15])	Activity (A2780 [16])	Activity (A2780 [17])	pIC50 (cells)	pIC50 (A2780cisR [18])	further results
CCCCNNC(=O)c1ccc(CN(CC(=O)NCc2ccccc2)C(=O)c2ccc(N(C)C)cc2)cc1	< 5.48	< 5.00	inactive	inactive	Not active; Slight Increase Observed	Not active; Slight Increase Observed	Active	Active	Active	Active	Active	Active	Active	Active	Active	Active	inactive	inactive	6.78	5.57	pIC50 (CAL-27 [19]): 6.16; pIC50 (MV4-11): 6.67
CCCNNC(=O)c1ccc(CN(CC(=O)NCc2ccccc2)C(=O)c2ccc(N(C)C)cc2)cc1	< 5.00	< 5.00	inactive	inactive	Not active; Slight Increase Observed	Not active; Slight Increase Observed	Active	Active	Active	Active	Active	Active	Active	Active	Active	Active	inactive	inactive	6.82	5.61	pIC50 (CAL-27 [19]): 6.18; pIC50 (MV4-11): 6.71
